Assay results: ChEMBL document CHEMBL2169877, “Antagonists of 5-HT₆ receptors. Substituted 3-(phenylsulfonyl)pyrazolo[1,5-a]pyrido[3,4-e]pyrimidines and 3-(phenylsulfonyl)pyrazolo[1,5-a]pyrido[4,3-d]pyrimidines-Synthesis and 'structure-activity' relationship” (Bioorg Med Chem Lett, 2012)
Calls of active or inactive are those of the source.

Columns and labels:
[1] = target: D(3) dopamine receptor (Homo sapiens) (UniProt P35462); test: Binding affinity to dopamine D3 receptor at 1 uM by radioligand displacement assay
[2] = Binding affinity to GABA(A) receptor TBOP binding site at 1 uM by radioligand displacement assay
[3] = target: Cyclin-dependent kinase 2/cyclin A (Homo sapiens) (UniProt P24941+P20248+P78396); test: Binding affinity to CDK2/cyclin A at 1 uM by radioligand displacement assay; format: protein-complex assay
[4] = target: Alpha-1B adrenergic receptor (Homo sapiens) (UniProt P35368); test: Binding affinity to alpha1B adrenergic receptor at 1 uM by radioligand displacement assay
[5] = Binding affinity to N-type calcium channel at 1 uM by radioligand displacement assay
[6] = target: Nitric oxide synthase, inducible (Homo sapiens) (UniProt P35228); test: Binding affinity to iNOS at 1 uM by radioligand displacement assay
[7] = Binding affinity to P2X receptor at 1 uM by radioligand displacement assay
[8] = Binding affinity to GABA transporter at 1 uM by radioligand displacement assay
[9] = target: 5-hydroxytryptamine receptor 2C (Homo sapiens) (UniProt P28335); test: Binding affinity to 5HT2C receptor at 1 uM by radioligand displacement assay
[10] = target: Beta-2 adrenergic receptor (Homo sapiens) (UniProt P07550); test: Binding affinity to beta2 adrenergic receptor at 1 uM by radioligand displacement assay
[11] = target: Histamine H2 receptor (Homo sapiens) (UniProt P25021); test: Binding affinity to histamine receptor H2 at 1 uM by radioligand displacement assay
[12] = Binding affinity to sodium channel site 2 at 1 uM by radioligand displacement assay
[13] = Binding affinity to PKC at 1 uM by radioligand displacement assay
[14] = target: Beta-1 adrenergic receptor (Homo sapiens) (UniProt P08588); test: Binding affinity to beta1 adrenergic receptor at 1 uM by radioligand displacement assay
[15] = target: Alpha-2B adrenergic receptor (Homo sapiens) (UniProt P18089); test: Binding affinity to alpha2B adrenergic receptor at 1 uM by radioligand displacement assay
[16] = target: Adenosine receptor A1 (Homo sapiens) (UniProt P30542); test: Binding affinity to adenosine A1 receptor at 1 uM by radioligand displacement assay
[17] = target: Alpha-2A adrenergic receptor (Homo sapiens) (UniProt P08913); test: Binding affinity to alpha2A adrenergic receptor at 1 uM by radioligand displacement assay
[18] = target: Nitric oxide synthase 1 (Homo sapiens) (UniProt P29475); test: Binding affinity to nNOS at 1 uM by radioligand displacement assay
[19] = target: Muscarinic acetylcholine receptor M2 (Homo sapiens) (UniProt P08172); test: Binding affinity to M2 receptor at 1 uM by radioligand displacement assay
[20] = target: Sodium-dependent serotonin transporter (Homo sapiens) (UniProt P31645); test: Binding affinity to serotonin transporter at 1 uM by radioligand displacement assay
[21] = Binding affinity to P2Y receptor at 1 uM by radioligand displacement assay
[22] = Binding affinity to PDE5 at 1 uM by radioligand displacement assay
[23] = Binding affinity to adenosine transporter at 1 uM by radioligand displacement assay
[24] = target: Corticotropin-releasing factor receptor 1 (Homo sapiens) (UniProt P34998); test: Binding affinity to CRF1R at 1 uM by radioligand displacement assay
[25] = Binding affinity to Glutamate receptor at 1 uM by radioligand displacement assay
[26] = target: T1, 5-hydroxytryptamine receptor 6 (Homo sapiens, UniProt P50406); test: Displacement of [3H]lysergic acid diethylamide from human recombinant 5HT6 receptor expressed in HeLa cells after 120 mins; format: cell-based
[27] = Binding affinity to GABA(A) receptor RO-15-1788 binding site at 1 uM by radioligand displacement assay
[28] = target: D(1A) dopamine receptor (Homo sapiens) (UniProt P21728); test: Binding affinity to dopamine D1 receptor at 1 uM by radioligand displacement assay
[29] = Binding affinity to choline transporter at 1 uM by radioligand displacement assay
[30] = target: Acetylcholinesterase (Homo sapiens) (UniProt P22303); test: Binding affinity to AChE at 1 uM by radioligand displacement assay
[31] = Binding affinity to central-type GABA(A) receptor flunitrazepam binding site at 1 uM by radioligand displacement assay
[32] = target: Cyclin-dependent kinase 1/cyclin B1 (Homo sapiens) (UniProt P06493+P14635); test: Binding affinity to CDK1/cyclin B at 1 uM by radioligand displacement assay; format: protein-complex assay
[33] = target: Amine oxidase [flavin-containing] A (Homo sapiens, UniProt P21397); test: Binding affinity to MAO-A at 1 uM by radioligand displacement assay
[34] = Binding affinity to central-type GABA(A) receptor muscimol binding site at 1 uM by radioligand displacement assay
[35] = target: Cannabinoid receptor 1 (Homo sapiens) (UniProt P21554); test: Binding affinity to CB1 receptor at 1 uM by radioligand displacement assay
[36] = target: 5-hydroxytryptamine receptor 2B (Homo sapiens, UniProt P41595); test: Displacement of [3H]lysergic acid diethylamide from human recombinant 5HT2B receptor at 1 uM
[37] = target: Sodium-dependent noradrenaline transporter (Homo sapiens) (UniProt P23975); test: Binding affinity to NET at 1 uM by radioligand displacement assay
[38] = target: Cannabinoid receptor 2 (Homo sapiens) (UniProt P34972); test: Binding affinity to CB2 receptor at 1 uM by radioligand displacement assay
[39] = target: Amine oxidase [flavin-containing] B (Homo sapiens, UniProt P27338); test: Binding affinity to MAO-B at 1 uM by radioligand displacement assay
[40] = target: Histamine H1 receptor (Homo sapiens) (UniProt P35367); test: Binding affinity to histamine receptor H1 at 1 uM by radioligand displacement assay
[41] = target: Histamine H3 receptor (Homo sapiens) (UniProt Q9Y5N1); test: Binding affinity to histamine receptor H3 at 1 uM by radioligand displacement assay
[42] = target: 5-hydroxytryptamine receptor 4 (Homo sapiens) (UniProt Q13639); test: Binding affinity to 5HT4 receptor at 1 uM by radioligand displacement assay
[43] = target: 5-hydroxytryptamine receptor 3A (Homo sapiens) (UniProt P46098); test: Binding affinity to 5HT3 receptor at 1 uM by radioligand displacement assay
[44] = target: T1, 5-hydroxytryptamine receptor 6; test: Antagonist activity at human recombinant 5HT6 receptor expressed in […] cells assessed as inhibition of serotonin-induced cAMP accumulation after 2 hrs; format: functional, cell-based, HEK293
[45] = Binding affinity to PDE3 at 1 uM by radioligand displacement assay
[46] = Binding affinity to PDE4 at 1 uM by radioligand displacement assay
[47] = Binding affinity to PDE2 at 1 uM by radioligand displacement assay

T1 sequence (P50406 whole entry): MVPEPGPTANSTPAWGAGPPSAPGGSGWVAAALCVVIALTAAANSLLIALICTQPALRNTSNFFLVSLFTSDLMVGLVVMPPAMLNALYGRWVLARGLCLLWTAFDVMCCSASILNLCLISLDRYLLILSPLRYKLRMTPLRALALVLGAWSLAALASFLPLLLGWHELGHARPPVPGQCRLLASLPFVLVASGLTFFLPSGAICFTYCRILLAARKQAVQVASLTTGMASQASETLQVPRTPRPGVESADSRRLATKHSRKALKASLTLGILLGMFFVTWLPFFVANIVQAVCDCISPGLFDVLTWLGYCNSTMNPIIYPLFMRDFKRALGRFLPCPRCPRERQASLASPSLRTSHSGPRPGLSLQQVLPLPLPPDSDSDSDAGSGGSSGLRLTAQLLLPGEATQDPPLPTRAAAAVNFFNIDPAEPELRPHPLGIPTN
Sequence of Acetylcholinesterase (Homo sapiens) (P22303 whole entry): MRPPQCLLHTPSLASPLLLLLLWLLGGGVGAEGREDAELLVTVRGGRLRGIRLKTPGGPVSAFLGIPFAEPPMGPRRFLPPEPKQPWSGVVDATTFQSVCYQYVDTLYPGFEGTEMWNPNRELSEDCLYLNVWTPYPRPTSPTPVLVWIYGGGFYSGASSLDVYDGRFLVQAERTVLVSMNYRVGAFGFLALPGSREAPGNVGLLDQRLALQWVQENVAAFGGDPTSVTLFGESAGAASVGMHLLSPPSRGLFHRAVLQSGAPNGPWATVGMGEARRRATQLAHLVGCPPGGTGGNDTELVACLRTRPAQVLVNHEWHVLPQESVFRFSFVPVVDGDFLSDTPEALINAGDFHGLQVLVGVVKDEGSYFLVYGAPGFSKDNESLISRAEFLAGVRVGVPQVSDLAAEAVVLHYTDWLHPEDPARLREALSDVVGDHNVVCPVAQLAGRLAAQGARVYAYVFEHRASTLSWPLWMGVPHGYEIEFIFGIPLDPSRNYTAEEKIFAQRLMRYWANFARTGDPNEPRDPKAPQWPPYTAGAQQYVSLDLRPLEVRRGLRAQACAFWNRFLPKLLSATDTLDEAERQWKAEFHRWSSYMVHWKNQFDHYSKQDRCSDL
Sequence of Sodium-dependent serotonin transporter (Homo sapiens) (P31645 whole entry, looked up): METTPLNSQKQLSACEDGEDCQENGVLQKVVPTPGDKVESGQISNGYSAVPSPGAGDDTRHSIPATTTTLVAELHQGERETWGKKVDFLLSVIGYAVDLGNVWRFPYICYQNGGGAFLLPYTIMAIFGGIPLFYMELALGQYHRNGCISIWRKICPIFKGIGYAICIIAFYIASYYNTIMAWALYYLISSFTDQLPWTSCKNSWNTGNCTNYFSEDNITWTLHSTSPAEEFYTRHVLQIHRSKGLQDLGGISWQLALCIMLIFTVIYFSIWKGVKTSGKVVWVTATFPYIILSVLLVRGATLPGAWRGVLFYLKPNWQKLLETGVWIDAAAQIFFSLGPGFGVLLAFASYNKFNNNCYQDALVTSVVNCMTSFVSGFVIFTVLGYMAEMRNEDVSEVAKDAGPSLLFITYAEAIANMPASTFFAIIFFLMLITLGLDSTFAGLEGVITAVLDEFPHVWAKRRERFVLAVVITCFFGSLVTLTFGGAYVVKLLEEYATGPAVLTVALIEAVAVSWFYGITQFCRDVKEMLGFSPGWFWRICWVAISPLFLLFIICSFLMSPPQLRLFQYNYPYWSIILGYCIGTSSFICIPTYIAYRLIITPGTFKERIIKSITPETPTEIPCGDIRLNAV
Sequence of Adenosine receptor A1 (Homo sapiens) (P30542 whole entry): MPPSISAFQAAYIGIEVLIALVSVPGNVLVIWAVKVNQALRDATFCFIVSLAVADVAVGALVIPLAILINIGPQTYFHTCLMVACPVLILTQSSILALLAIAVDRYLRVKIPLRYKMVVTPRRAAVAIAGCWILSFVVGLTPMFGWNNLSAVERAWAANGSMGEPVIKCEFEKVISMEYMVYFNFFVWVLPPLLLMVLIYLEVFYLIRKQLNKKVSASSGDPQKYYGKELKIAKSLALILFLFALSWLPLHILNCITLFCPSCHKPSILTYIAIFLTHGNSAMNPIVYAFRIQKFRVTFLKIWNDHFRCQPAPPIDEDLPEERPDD
Sequence of Cannabinoid receptor 1 (Homo sapiens) (P21554 whole entry): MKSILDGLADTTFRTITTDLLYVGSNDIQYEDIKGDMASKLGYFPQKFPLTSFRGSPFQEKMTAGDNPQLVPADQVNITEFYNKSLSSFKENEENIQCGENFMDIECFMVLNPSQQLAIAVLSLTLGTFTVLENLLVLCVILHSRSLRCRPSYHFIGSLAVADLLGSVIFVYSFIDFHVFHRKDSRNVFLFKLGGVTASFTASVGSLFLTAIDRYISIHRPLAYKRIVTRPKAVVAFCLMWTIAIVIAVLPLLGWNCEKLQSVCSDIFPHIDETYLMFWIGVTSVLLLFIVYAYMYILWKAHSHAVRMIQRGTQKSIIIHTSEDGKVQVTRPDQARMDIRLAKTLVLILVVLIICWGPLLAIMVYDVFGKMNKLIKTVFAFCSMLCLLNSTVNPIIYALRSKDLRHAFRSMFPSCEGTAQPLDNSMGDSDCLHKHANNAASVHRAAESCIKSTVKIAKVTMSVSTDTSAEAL
Sequence of D(3) dopamine receptor (Homo sapiens) (P35462 whole entry): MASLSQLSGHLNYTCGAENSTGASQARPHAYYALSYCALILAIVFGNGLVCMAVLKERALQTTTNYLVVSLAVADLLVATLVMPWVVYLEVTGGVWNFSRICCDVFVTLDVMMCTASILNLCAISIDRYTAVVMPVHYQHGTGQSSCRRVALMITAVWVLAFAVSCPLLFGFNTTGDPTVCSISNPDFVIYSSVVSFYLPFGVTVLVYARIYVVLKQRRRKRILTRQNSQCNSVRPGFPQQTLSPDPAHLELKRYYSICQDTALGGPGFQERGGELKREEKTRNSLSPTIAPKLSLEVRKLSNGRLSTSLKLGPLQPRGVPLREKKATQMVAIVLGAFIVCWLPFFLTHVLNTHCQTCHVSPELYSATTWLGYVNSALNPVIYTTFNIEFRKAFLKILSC
Sequence of D(1A) dopamine receptor (Homo sapiens) (P21728 whole entry): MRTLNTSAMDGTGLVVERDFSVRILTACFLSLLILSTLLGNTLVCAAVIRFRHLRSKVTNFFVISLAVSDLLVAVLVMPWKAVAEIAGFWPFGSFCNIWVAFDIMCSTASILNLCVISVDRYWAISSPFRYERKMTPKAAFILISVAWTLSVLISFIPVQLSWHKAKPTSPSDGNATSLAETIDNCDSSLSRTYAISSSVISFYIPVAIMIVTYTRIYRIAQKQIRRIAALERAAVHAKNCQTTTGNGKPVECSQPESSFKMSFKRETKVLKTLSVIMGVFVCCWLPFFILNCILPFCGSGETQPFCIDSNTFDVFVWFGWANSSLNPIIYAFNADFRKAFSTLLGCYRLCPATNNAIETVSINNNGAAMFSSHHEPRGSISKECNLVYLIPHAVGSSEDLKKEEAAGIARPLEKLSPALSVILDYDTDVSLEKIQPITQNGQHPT
Sequence of Histamine H3 receptor (Homo sapiens) (Q9Y5N1 whole entry): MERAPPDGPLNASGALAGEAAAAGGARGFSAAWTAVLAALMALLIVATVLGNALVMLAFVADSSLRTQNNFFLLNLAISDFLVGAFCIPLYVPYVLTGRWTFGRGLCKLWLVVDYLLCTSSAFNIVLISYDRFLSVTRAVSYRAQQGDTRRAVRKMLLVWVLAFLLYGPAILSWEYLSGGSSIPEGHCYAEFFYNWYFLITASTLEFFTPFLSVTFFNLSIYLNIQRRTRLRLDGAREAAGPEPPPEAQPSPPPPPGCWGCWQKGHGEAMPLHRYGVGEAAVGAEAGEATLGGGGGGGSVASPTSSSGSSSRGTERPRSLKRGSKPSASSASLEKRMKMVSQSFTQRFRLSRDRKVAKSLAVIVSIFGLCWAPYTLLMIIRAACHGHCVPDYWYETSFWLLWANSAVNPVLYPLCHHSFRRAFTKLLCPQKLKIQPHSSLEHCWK
Sequence of Cannabinoid receptor 2 (Homo sapiens) (P34972 whole entry): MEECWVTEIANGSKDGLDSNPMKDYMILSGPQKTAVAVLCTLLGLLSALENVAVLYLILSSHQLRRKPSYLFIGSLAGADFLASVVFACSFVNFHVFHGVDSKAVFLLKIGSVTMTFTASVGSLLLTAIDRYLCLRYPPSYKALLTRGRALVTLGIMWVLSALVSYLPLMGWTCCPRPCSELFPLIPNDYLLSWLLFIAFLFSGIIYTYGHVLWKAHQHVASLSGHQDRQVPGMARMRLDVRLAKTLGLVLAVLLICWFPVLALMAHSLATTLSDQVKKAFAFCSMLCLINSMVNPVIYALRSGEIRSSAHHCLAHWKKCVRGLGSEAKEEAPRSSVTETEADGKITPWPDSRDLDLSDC
Sequence of Histamine H2 receptor (Homo sapiens) (P25021 whole entry): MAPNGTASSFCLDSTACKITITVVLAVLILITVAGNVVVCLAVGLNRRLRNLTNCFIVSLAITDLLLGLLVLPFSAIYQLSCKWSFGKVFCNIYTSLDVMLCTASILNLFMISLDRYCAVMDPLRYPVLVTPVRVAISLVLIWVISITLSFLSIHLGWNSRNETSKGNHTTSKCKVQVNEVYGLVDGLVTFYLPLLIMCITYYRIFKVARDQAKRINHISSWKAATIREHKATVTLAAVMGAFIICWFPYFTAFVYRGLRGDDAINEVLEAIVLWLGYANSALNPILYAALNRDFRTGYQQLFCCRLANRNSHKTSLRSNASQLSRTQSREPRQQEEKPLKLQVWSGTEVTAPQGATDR
Sequence of Muscarinic acetylcholine receptor M2 (Homo sapiens) (P08172 whole entry): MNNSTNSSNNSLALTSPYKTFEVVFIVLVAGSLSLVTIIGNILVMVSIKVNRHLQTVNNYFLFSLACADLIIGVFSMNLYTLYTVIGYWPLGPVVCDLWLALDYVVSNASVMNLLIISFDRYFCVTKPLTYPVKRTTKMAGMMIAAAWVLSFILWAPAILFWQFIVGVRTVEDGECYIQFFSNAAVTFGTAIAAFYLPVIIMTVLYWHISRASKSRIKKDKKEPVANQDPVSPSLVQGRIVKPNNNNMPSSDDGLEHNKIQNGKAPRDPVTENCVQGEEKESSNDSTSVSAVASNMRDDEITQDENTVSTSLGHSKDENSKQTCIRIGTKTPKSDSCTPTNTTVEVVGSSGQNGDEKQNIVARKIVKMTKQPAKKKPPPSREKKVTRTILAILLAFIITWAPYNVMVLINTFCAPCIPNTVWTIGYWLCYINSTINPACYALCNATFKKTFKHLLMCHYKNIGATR

CNc1nn2cc3c(nc2c1S(=O)(=O)c1ccccc1)CCN(C)C3
0.82 nM: Ki [26]
inactive: Activity [1] | Activity [2] | Activity [3] | Activity [4] | Activity [5] | Activity [6] | Activity [7] | Activity [8] | Activity [9] | Activity [10] | Activity [11] | Activity [12] | Activity [13] | Activity [14] | Activity [15] | Activity [16] | Activity [17] | Activity [18] | Activity [19] | Activity [20] | Activity [21] | Activity [22] | Activity [23] | Activity [24] | Activity [25] | Activity [27] | Activity [28] | Activity [29] | Activity [30] | Activity [31] | Activity [32] | Activity [34] | Activity [35] | Activity [36] | Activity [37] | Activity [38] | Activity [40] | Activity [41] | Activity [42] | Activity [43] | Activity [45] | Activity [46] | Activity [47]
14.3 nM: Ki [44]
Not Active: Activity [33] | Activity [39]
